Columns and labels:
[1] = molecular target: Nonstructural protein 5 (Dengue virus, UniProt V5TFZ2); assay: Inhibition of Dengue virus RdRp activity using 5'-(TCAG)20(TCCAAG)14(TCAG)20-3' as template measured after 120 mins
[2] = molecular target: POLRMT (DNA-directed RNA polymerase, mitochondrial) (Homo sapiens, UniProt O00411); assay: Inhibition of human POLRMT using 5'-FAM labelled RNA primer/DNA template duplex assessed as single nucleotide incorporation rate at 500 uM after 5 mins by SDS-PAGE analysis relative to control; parameters: scale not given: the % may be the effect or the level left; details: probe 5'-FAM labelled RNA primer/DNA template duplex, read-out: Activity
Chain of POLRMT (DNA-directed RNA polymerase, mitochondrial) (O00411 whole entry): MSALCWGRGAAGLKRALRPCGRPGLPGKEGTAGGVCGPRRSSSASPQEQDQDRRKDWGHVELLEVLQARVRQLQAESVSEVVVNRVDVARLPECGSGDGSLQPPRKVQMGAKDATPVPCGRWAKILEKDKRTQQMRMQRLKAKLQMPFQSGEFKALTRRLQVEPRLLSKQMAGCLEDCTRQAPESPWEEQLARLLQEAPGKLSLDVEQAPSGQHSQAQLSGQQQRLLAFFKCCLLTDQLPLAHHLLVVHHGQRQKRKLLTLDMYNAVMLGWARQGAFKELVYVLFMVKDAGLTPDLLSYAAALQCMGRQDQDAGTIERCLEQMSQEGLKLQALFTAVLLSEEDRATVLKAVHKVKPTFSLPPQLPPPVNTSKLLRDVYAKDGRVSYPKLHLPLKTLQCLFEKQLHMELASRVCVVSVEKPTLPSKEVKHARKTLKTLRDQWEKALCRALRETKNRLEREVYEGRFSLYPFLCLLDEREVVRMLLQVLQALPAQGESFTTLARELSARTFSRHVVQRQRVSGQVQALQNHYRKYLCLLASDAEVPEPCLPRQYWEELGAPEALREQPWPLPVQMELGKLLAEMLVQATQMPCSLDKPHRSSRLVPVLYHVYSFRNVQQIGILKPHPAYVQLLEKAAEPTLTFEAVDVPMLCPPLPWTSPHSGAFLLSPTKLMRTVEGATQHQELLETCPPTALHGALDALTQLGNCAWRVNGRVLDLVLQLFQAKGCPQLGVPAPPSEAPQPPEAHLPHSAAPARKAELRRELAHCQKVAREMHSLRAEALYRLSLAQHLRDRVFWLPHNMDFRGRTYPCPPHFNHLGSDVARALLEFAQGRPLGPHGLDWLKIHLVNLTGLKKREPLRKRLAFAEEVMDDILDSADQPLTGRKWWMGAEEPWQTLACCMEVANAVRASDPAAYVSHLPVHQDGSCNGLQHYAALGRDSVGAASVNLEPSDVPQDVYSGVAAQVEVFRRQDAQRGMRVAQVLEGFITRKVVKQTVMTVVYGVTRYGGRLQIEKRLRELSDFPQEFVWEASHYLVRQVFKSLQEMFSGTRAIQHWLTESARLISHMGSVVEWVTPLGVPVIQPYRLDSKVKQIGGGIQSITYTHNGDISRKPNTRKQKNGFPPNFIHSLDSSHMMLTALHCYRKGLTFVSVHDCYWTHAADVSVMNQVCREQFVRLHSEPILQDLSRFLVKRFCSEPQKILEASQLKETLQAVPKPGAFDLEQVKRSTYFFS

[3] = Inhibition of recombinant human mitochondrial DNA polymerase gamma expressed in Escherichia coli BL21(DE3) cells assessed as single nucleotide incorporation rate at 100 uM relative to NTP; parameters: scale not given: the % may be the effect or the level left
[4] = Cytotoxicity against human HepG2 cells after 96 hrs by CCK-8 assay; format: cell-based
[5] = system: dengue virus type 2; assay: Antiviral activity against Dengue virus 2 infected in human HuH7 cells by replicon assay; format: functional, organism-based; details: Huh-7
[6] = system: dengue virus type 2; assay: Antiviral activity against Dengue virus 2 infected in human PBMC after 2 days post infection by plaque assay; format: functional, organism-based; details: 48 h
[7] = Mitochondrial toxicity in human PC3 cells assessed as effect on mitochondrial protein synthesis measured after 5 days by ELISA; format: cell-based, PC-3
[8] = Cytotoxicity against human K562 cells; format: cell-based
[9] = Cytotoxicity against human MT4 cells; format: cell-based
[10] = system: dengue virus type 2; assay: Antiviral activity against Dengue virus 2 infected in human PBMC after 24 hrs post infection by plaque assay; format: functional, organism-based
[11] = molecular target: DNA-directed RNA polymerase, mitochondrial (Homo sapiens, UniProt O00411); assay: Inhibition of human full length POLRMT using 32P-RNA primer/DNA template assessed as single nucleotide incorporation rate at 500 uM by SDS-PAGE analysis relative to CTP; parameters: scale not given: the % may be the effect or the level left
Chain of DNA-directed RNA polymerase, mitochondrial (O00411 whole entry): as above

Chain of Nonstructural protein 5 (V5TFZ2 whole entry): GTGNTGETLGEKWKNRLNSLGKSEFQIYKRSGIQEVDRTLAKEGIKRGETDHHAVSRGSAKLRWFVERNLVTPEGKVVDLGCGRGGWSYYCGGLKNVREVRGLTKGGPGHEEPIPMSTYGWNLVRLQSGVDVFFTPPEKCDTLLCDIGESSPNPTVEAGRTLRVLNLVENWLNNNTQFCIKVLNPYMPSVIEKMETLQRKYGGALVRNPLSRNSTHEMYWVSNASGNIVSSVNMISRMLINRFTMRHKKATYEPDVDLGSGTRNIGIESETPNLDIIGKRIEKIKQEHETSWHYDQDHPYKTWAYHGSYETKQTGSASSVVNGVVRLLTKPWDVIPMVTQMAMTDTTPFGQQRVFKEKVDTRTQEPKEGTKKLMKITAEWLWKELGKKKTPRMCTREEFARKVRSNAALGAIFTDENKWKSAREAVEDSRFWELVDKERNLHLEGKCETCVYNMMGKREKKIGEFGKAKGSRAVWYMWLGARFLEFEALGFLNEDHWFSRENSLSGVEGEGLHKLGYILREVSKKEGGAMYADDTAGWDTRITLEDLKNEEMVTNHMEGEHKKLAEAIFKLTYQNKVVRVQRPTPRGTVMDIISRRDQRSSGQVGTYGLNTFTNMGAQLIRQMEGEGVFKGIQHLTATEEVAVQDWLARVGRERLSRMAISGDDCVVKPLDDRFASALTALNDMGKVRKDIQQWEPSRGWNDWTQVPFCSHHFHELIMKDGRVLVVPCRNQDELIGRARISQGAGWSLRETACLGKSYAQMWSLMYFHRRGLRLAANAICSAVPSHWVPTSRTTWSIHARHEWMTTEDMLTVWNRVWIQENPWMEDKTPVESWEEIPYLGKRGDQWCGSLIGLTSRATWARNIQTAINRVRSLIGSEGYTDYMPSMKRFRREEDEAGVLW

Row | IC50 [1] [µM] | activity at 5 min, 500 µM [2] [%] | Compound | CC50 at 96 h [4] [µM] | EC50 [6] [µM] | other results
1 | 0.65 | 3 | C#C[C@]1(O)[C@H](n2ccc(=O)[nH]c2=O)O[C@](F)(COP(=O)(O)OP(=O)(O)OP(=O)(O)O)[C@H]1O |  |  | Activity [3]: 0%
2 | 1.6 | 16.8 | C#C[C@@]1(O)[C@H](O)[C@@H](COP(=O)(O)OP(=O)(O)OP(=O)(O)O)O[C@H]1n1ccc(=O)[nH]c1=O |  |  | 
3 | 2.8 | 1.7 | CC#C[C@]1(O)[C@H](n2ccc(=O)[nH]c2=O)O[C@](F)(COP(=O)(O)OP(=O)(O)OP(=O)(O)O)[C@H]1O |  |  | 
4 | 2 | 6.7 | CC#C[C@@]1(O)[C@H](O)[C@@H](COP(=O)(O)OP(=O)(O)OP(=O)(O)O)O[C@H]1n1ccc(=O)[nH]c1=O |  |  | 
5 | 15.9 | 2 | C#C[C@@]1(F)[C@H](O)[C@@H](COP(=O)(O)OP(=O)(O)OP(=O)(O)O)O[C@H]1n1ccc(=O)[nH]c1=O |  |  | 
6 | > 20 | 2.2 | CC#C[C@@]1(F)[C@H](O)[C@@H](COP(=O)(O)OP(=O)(O)OP(=O)(O)O)O[C@H]1n1ccc(=O)[nH]c1=O |  |  | 
7 | 5 | 29.4 | C[C@@]1(O)[C@H](O)[C@@H](COP(=O)(O)OP(=O)(O)OP(=O)(O)O)O[C@H]1n1ccc(=O)[nH]c1=O |  |  | 
8 | 6.6 | 5.7 | C[C@]1(O)[C@H](n2ccc(=O)[nH]c2=O)O[C@](F)(COP(=O)(O)OP(=O)(O)OP(=O)(O)O)[C@H]1O [ADAFOSBUVIR 5'-TRIPHOSPHATE] |  |  | 
9 | 18 | 1.8 | C[C@@]1(F)[C@H](O)[C@@H](COP(=O)(O)OP(=O)(O)OP(=O)(O)O)O[C@H]1n1ccc(=O)[nH]c1=O [GS-461203] |  |  | 

Second part, the compound before the results:

Row | Compound | IC50 [1] [µM] | activity at 5 min, 500 µM [2] [%] | CC50 at 96 h [4] [µM] | EC50 [6] [µM] | other results
10 | CC#C[C@@]1(F)[C@H](O)[C@@H](CO[P@@](=O)(N[C@@H](C)C(=O)OC(C)C)Oc2ccccc2)O[C@H]1n1ccc(=O)[nH]c1=O |  |  | > 50 |  | EC50 [5]: > 100 µM
11 | C#C[C@]1(O)[C@H](n2ccc(=O)[nH]c2=O)O[C@](F)(CO[P@@](=O)(N[C@@H](C)C(=O)OC(C)C)Oc2ccccc2)[C@H]1O |  |  | > 50 | 0.57 | CC50 at 120 h [7]: > 200 µM; CC50 [8]: > 50 µM; CC50 [9]: > 50 µM
12 | CC#C[C@@]1(O)[C@H](O)[C@@H](CO[P@@](=O)(N[C@@H](C)C(=O)OC(C)C)Oc2ccccc2)O[C@H]1n1ccc(=O)[nH]c1=O |  |  | > 50 | 1.9 | 
13 | C#C[C@@]1(F)[C@H](O)[C@@H](CO[P@@](=O)(N[C@@H](C)C(=O)OC(C)C)Oc2ccccc2)O[C@H]1n1ccc(=O)[nH]c1=O |  |  | > 50 | > 25 | 
14 | CC#C[C@]1(O)[C@H](n2ccc(=O)[nH]c2=O)O[C@](F)(CO[P@@](=O)(N[C@@H](C)C(=O)OC(C)C)Oc2ccccc2)[C@H]1O |  |  | > 50 | 9 | 
15 | C#C[C@@]1(O)[C@H](O)[C@@H](CO[P@@](=O)(N[C@@H](C)C(=O)OC(C)C)Oc2ccccc2)O[C@H]1n1ccc(=O)[nH]c1=O |  |  | > 50 | 0.45 | 
16 | CC(C)OC(=O)[C@H](C)NP(=O)(OC[C@H]1O[C@@H](n2ccc(=O)[nH]c2=O)[C@](C)(O)[C@@H]1O)Oc1ccccc1 (mixture of isomers) |  |  | > 50 | 0.19 | 
17 | [N-]=[N+]=N[C@]1(CO)O[C@@H](n2ccc(N)nc2=O)[C@H](O)[C@@H]1O [4'-AZIDOCYTIDINE] |  |  |  |  | EC50 [10]: 0.25 µM; Activity [11]: 91%
18 | CC(C)OC(=O)[C@H](C)N[P@](=O)(OC[C@@]1(F)O[C@@H](n2ccc(=O)[nH]c2=O)[C@](C)(O)[C@@H]1O)Oc1ccccc1 [ADAFOSBUVIR] |  |  | > 50 | 1.1 | 
19 | CC(C)OC(=O)[C@H](C)N[P@](=O)(OC[C@H]1O[C@@H](n2ccc(=O)[nH]c2=O)[C@](C)(F)[C@@H]1O)Oc1ccccc1 [SOFOSBUVIR] |  |  | > 50 | 1.2 | 

Reference: ChEMBL document CHEMBL4118212, “Structure-activity relationship of uridine-based nucleoside phosphoramidate prodrugs for inhibition of dengue virus RNA-dependent RNA polymerase” (Bioorg Med Chem Lett, 2018)
